# Results: PubChem BioAssay AID2837 (The Scripps Research Institute Molecular Screening Center, 2010)
# Calls of active or inactive are those of the source.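 The calls were made as follows: active = IC50 of 10 µM or lower; inactive = IC50 above 10 µM.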
# Molecular target: Guanyl-specific ribonuclease T1 (Aspergillus oryzae (strain ATCC 42149 / RIB 40)) (UniProt P00651)
# Experiment: RNase T1 inhibition potency, counter-screen, late-stage follow-up, counter-screen for TPT1 inhibitor project, biochemical, fluorescence polarization, IC50 (AID 2837)
# Conditions: RNase T1 cleavage of B-U6G-AF
# Guanyl-specific ribonuclease T1 (Aspergillus oryzae (strain ATCC 42149 / RIB 40)), sequence (P00651 whole entry, looked up): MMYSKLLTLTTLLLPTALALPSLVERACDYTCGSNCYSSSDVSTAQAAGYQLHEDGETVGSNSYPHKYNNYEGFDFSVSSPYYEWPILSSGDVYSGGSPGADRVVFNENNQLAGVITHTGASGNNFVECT
row,SMILES,IC50
1,COc1ccc(OC)c(N2C(=O)/C(=C/c3ccco3)C(=O)NC2=S)c1,inactive
2,CC1=C(C#N)C(=O)N(C2CCS(=O)(=O)C2)C(=O)/C1=C\c1ccco1 (stereo not given),> 49.8 µM (inactive)
3,OC(Cn1cncn1)(Cn1cncn1)c1ccc(F)cc1F,> 49.8 µM (inactive)
4,Cc1[nH]n(-c2ccc(S(=O)(=O)O)cc2)c(=O)c1N[N-]c1ccc(C2=CC(=O)/C(=N\[N-]c3ccc4c(S(=O)(=O)O)cc(S(=O)(=O)O)c(N)c4c3O)C=C2)cc1O.[Cu+].[Cu+],> 49.8 µM (inactive)
5,Cc1ccc(N2C(=O)NC(=O)/C(=C\c3ccc([N+](=O)[O-])o3)C2=O)cc1,inactive
6,Cc1ccccc1N1C(=O)/C(=C/c2ccco2)C(=O)NC1=S,inactive
7,Cc1cc(C)n(Cc2ccc(C(=O)NN=Cc3ccc(-c4ccc([N+](=O)[O-])cc4)o3)o2)n1,inactive
8,NS(=O)(=O)c1cc(C(=O)NC2CCSc3ccccc32)ccc1Cl (stereo not given),> 49.8 µM (inactive)
9,NC(=O)c1cc[n+](CC2=C(C(=O)O)N3C(=O)[C@@H](NC(=O)C(c4ccccc4)S(=O)(=O)O)[C@H]3SC2)cc1 (stereo not given in full),> 49.8 µM (inactive)
10,O=c1oc2c(O)c(O)cc3c(=O)oc4c(O)c(O)cc1c4c23,> 49.8 µM (inactive)
